Measured values: ChEMBL document CHEMBL1201862, “PubChem BioAssay data set” (2004)
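Exposure lasted 48 hours, with cells grown in 96-well plates and compounds tested at five concentrations. GI50 marks 50% less growth.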 Calls of active or inactive are those of the source. No stated cut-off is given here; in the data, active = GI50 up to about 1.1 µM and inactive = higher.

Tests used:
Experiment in all cases: inhibition of tumour cell growth, NCI panel, 48 h
[1] = test system: KM-20L2
[2] = test system: LXFL 529
[3] = test system: MOLT-4
[4] = test system: DLD-1
[5] = test system: M19-MEL
[6] = test system: CAKI-1
[7] = test system: SK-OV-3
[8] = test system: SNB-19
[9] = test system: RPMI-8226
[10] = test system: NCI-H460
[11] = test system: CCRF-CEM
[12] = test system: ACHN
[13] = test system: SF-268
[14] = test system: M14
[15] = test system: NCI-H23
[16] = test system: RXF 631
[17] = test system: NCI-H522
[18] = test system: RXF 393
[19] = test system: COLO 205
[20] = test system: 786-0
[21] = test system: HOP-92
[22] = test system: OVCAR-3
[23] = test system: SNB-75
[24] = test system: TK-10
[25] = test system: NCI-H226
[26] = test system: SK-MEL-5
[27] = test system: SF-539
[28] = test system: HT-29
[29] = test system: SK-MEL-28
[30] = test system: UO-31
[31] = test system: DMS-273
[32] = test system: HCT-116
[33] = test system: SR
[34] = test system: SF-295
[35] = test system: OVCAR-8
[36] = test system: SNB-78
[37] = test system: HOP-62
[38] = test system: EKVX
[39] = test system: SN12C
[40] = test system: A549
[41] = test system: K562
[42] = test system: HL-60
[43] = test system: SW-620
[44] = test system: SK-MEL-2
[45] = test system: UACC-62
[46] = test system: HCT-15
[47] = test system: HOP-18
[48] = test system: UACC-257
[49] = test system: HCC 2998
[50] = test system: LOX IMVI
[51] = test system: A498
[52] = test system: KM12
[53] = test system: IGROV-1
[54] = test system: OVCAR-5
[55] = test system: Malme-3M
[56] = test system: OVCAR-4
[57] = test system: U-251
[58] = test system: DMS-114

## COc1ccc2c(c1)CCC1C3(CCCC21C)OCCO3 (stereo not given)
[1]
  GI50: 19.7 µM (inactive)
[2]
  GI50: 18.2 µM (inactive)
[3]
  GI50: 14.4 µM (inactive)
[4]
  GI50: 15.7 µM (inactive)
[5]
  GI50: 18.6 µM (inactive)
[6]
  GI50: 34.6 µM (inactive)
[7]
  GI50: 24 µM (inactive)
[8]
  GI50: 28.9 µM (inactive)
[9]
  GI50: 18.8 µM (inactive)
[10]
  GI50: 16.3 µM (inactive)
[11]
  GI50: 16.9 µM (inactive)
[12]
  GI50: 23.3 µM (inactive)
[13]
  GI50: 6.9 µM (inactive)
[14]
  GI50: 18.8 µM (inactive)
[15]
  GI50: 15.6 µM (inactive)
[16]
  GI50: 23.9 µM (inactive)
[17]
  GI50: 15.7 µM (inactive)
[18]
  GI50: 13.7 µM (inactive)
[19]
  GI50: 17.9 µM (inactive)
[20]
  GI50: 18.5 µM (inactive)
[21]
  GI50: 15.1 µM (inactive)
[22]
  GI50: 16.1 µM (inactive)
[23]
  GI50: 19.8 µM (inactive)
[24]
  GI50: 36.8 µM (inactive)
[25]
  GI50: 17.4 µM (inactive)
[26]
  GI50: 15.6 µM (inactive)
[27]
  GI50: 12.9 µM (inactive)
[28]
  GI50: 17.5 µM (inactive)
[29]
  GI50: 20.2 µM (inactive)
[30]
  GI50: 16.9 µM (inactive)
[31]
  GI50: 17.5 µM (inactive)
[32]
  GI50: 16.8 µM (inactive)
[33]
  GI50: 20.4 µM (inactive)
[34]
  GI50: 19.3 µM (inactive)
[35]
  GI50: 17.5 µM (inactive)
[36]
  GI50: 19.4 µM (inactive)
[37]
  GI50: 13.8 µM (inactive)
[38]
  GI50: 16.8 µM (inactive)
[39]
  GI50: 16.3 µM (inactive)
[40]
  GI50: 26.9 µM (inactive)
[41]
  GI50: 15.4 µM (inactive)
[42]
  GI50: 15.9 µM (inactive)
[43]
  GI50: 33.9 µM (inactive)
[44]
  GI50: 4.7 µM (inactive)
[45]
  GI50: 15.4 µM (inactive)
[46]
  GI50: 17.1 µM
[47]
  GI50: 23.1 µM (inactive)
[48]
  GI50: 20.8 µM (inactive)
[49]
  GI50: 22.8 µM (inactive)
[50]
  GI50: 15.9 µM (inactive)
[51]
  GI50: 29.6 µM (inactive)
[52]
  GI50: 20.3 µM (inactive)
[53]
  GI50: 28.8 µM (inactive)
[54]
  GI50: 27 µM (inactive)
[55]
  GI50: 27.9 µM (inactive)
[56]
  GI50: 29.4 µM (inactive)
[57]
  GI50: 15.9 µM (inactive)

## Cn1ccnc1CCc1ccc(Cl)cc1Cl
[1]
  GI50: > 100 µM (inactive)
[2]
  GI50: > 100 µM (inactive)
[3]
  GI50: > 100 µM (inactive)
[58]
  GI50: 56.8 µM (inactive)
[4]
  GI50: > 100 µM (inactive)
[5]
  GI50: > 100 µM (inactive)
[6]
  GI50: > 100 µM (inactive)
[7]
  GI50: > 100 µM (inactive)
[8]
  GI50: > 100 µM (inactive)
[9]
  GI50: > 100 µM (inactive)
[10]
  GI50: > 100 µM (inactive)
[11]
  GI50: > 100 µM (inactive)
[12]
  GI50: > 100 µM (inactive)
[13]
  GI50: > 100 µM (inactive)
[14]
  GI50: > 100 µM (inactive)
[15]
  GI50: > 100 µM (inactive)
[16]
  GI50: > 100 µM (inactive)
[17]
  GI50: > 100 µM (inactive)
[18]
  GI50: 35.4 µM (inactive)
[19]
  GI50: > 100 µM (inactive)
[20]
  GI50: > 100 µM (inactive)
[21]
  GI50: 49.9 µM (inactive)
[22]
  GI50: > 100 µM (inactive)
[23]
  GI50: > 100 µM (inactive)
[24]
  GI50: > 100 µM (inactive)
[25]
  GI50: > 100 µM (inactive)
[27]
  GI50: > 100 µM (inactive)
[28]
  GI50: 79.4 µM (inactive)
[29]
  GI50: > 100 µM (inactive)
[30]
  GI50: 49.5 µM (inactive)
[31]
  GI50: > 100 µM (inactive)
[32]
  GI50: > 100 µM (inactive)
[34]
  GI50: 79.1 µM (inactive)
[35]
  GI50: > 100 µM (inactive)
[36]
  GI50: > 100 µM (inactive)
[37]
  GI50: > 100 µM (inactive)
[38]
  GI50: 48.8 µM (inactive)
[39]
  GI50: > 100 µM (inactive)
[40]
  GI50: > 100 µM (inactive)
[41]
  GI50: > 100 µM (inactive)
[42]
  GI50: 68.1 µM (inactive)
[43]
  GI50: > 100 µM (inactive)
[44]
  GI50: > 100 µM (inactive)
[45]
  GI50: > 100 µM (inactive)
[46]
  GI50: > 100 µM
[47]
  GI50: > 100 µM (inactive)
[48]
  GI50: > 100 µM (inactive)
[49]
  GI50: > 100 µM (inactive)
[50]
  GI50: > 100 µM (inactive)
[51]
  GI50: > 100 µM (inactive)
[52]
  GI50: > 100 µM (inactive)
[53]
  GI50: > 100 µM (inactive)
[54]
  GI50: > 100 µM (inactive)
[55]
  GI50: > 100 µM (inactive)
[56]
  GI50: > 100 µM (inactive)
[57]
  GI50: > 100 µM (inactive)

## COc1ccc(/C(Cl)=C(\C=O)c2ccc(F)cc2)cc1OC
[1]
  GI50: 16.2 µM (inactive)
[2]
  GI50: 11.5 µM (inactive)
[3]
  GI50: 9.91 µM (inactive)
[58]
  GI50: 14.4 µM (inactive)
[4]
  GI50: 21.8 µM (inactive)
[5]
  GI50: 21 µM (inactive)
[6]
  GI50: 19.1 µM (inactive)
[7]
  GI50: 39.4 µM (inactive)
[8]
  GI50: 37.4 µM (inactive)
[9]
  GI50: 6.64 µM (inactive)
[10]
  GI50: 19.3 µM (inactive)
[11]
  GI50: 10.7 µM (inactive)
[12]
  GI50: 16.8 µM (inactive)
[13]
  GI50: 13.5 µM (inactive)
[14]
  GI50: 17.6 µM (inactive)
[15]
  GI50: 16.6 µM (inactive)
[16]
  GI50: 19.9 µM (inactive)
[17]
  GI50: 12.3 µM (inactive)
[19]
  GI50: 19.6 µM (inactive)
[21]
  GI50: 6.32 µM (inactive)
[22]
  GI50: 22.8 µM (inactive)
[23]
  GI50: 3.22 µM (inactive)
[24]
  GI50: 34.3 µM (inactive)
[25]
  GI50: 14 µM (inactive)
[26]
  GI50: 15.3 µM (inactive)
[27]
  GI50: 23 µM (inactive)
[28]
  GI50: 15.4 µM (inactive)
[29]
  GI50: 24 µM (inactive)
[30]
  GI50: 16.4 µM (inactive)
[31]
  GI50: 27.4 µM (inactive)
[32]
  GI50: 15.4 µM (inactive)
[34]
  GI50: 21.6 µM (inactive)
[35]
  GI50: 21.5 µM (inactive)
[36]
  GI50: 15.3 µM (inactive)
[37]
  GI50: 15.2 µM (inactive)
[38]
  GI50: 5 µM (inactive)
[39]
  GI50: 15.9 µM (inactive)
[41]
  GI50: 16.8 µM (inactive)
[42]
  GI50: 7.16 µM (inactive)
[43]
  GI50: 28.7 µM (inactive)
[44]
  GI50: 16.4 µM (inactive)
[45]
  GI50: 14.5 µM (inactive)
[46]
  GI50: 12.8 µM
[47]
  GI50: 12.9 µM (inactive)
[50]
  GI50: 14.2 µM (inactive)
[51]
  GI50: 20 µM (inactive)
[53]
  GI50: 31.9 µM (inactive)
[55]
  GI50: 30.5 µM (inactive)
[57]
  GI50: 15.6 µM (inactive)

## CC[C@@H]1OC2(C)CC(S(=O)(=O)c3ccccc3O)CC1O2 (stereo not given in full)
[1]
  GI50: > 100 µM (inactive)
[2]
  GI50: > 100 µM (inactive)
[3]
  GI50: > 100 µM (inactive)
[4]
  GI50: > 100 µM (inactive)
[5]
  GI50: > 100 µM (inactive)
[6]
  GI50: < 0.01 µM (active)
[7]
  GI50: > 100 µM (inactive)
[8]
  GI50: > 100 µM (inactive)
[9]
  GI50: > 100 µM (inactive)
[10]
  GI50: > 100 µM (inactive)
[11]
  GI50: > 100 µM (inactive)
[12]
  GI50: > 100 µM (inactive)
[13]
  GI50: > 100 µM (inactive)
[14]
  GI50: > 100 µM (inactive)
[15]
  GI50: > 100 µM (inactive)
[16]
  GI50: > 100 µM (inactive)
[17]
  GI50: > 100 µM (inactive)
[18]
  GI50: > 100 µM (inactive)
[19]
  GI50: > 100 µM (inactive)
[20]
  GI50: > 100 µM (inactive)
[21]
  GI50: > 100 µM (inactive)
[22]
  GI50: > 100 µM (inactive)
[23]
  GI50: > 100 µM (inactive)
[25]
  GI50: > 100 µM (inactive)
[26]
  GI50: > 100 µM (inactive)
[27]
  GI50: > 100 µM (inactive)
[28]
  GI50: > 10 µM (inactive)
[29]
  GI50: > 100 µM (inactive)
[30]
  GI50: > 100 µM (inactive)
[31]
  GI50: > 100 µM (inactive)
[32]
  GI50: > 100 µM (inactive)
[33]
  GI50: > 100 µM (inactive)
[34]
  GI50: > 100 µM (inactive)
[35]
  GI50: > 100 µM (inactive)
[37]
  GI50: > 100 µM (inactive)
[38]
  GI50: > 100 µM (inactive)
[39]
  GI50: > 100 µM (inactive)
[40]
  GI50: > 100 µM (inactive)
[41]
  GI50: > 100 µM (inactive)
[42]
  GI50: > 100 µM (inactive)
[43]
  GI50: > 100 µM (inactive)
[44]
  GI50: > 100 µM (inactive)
[45]
  GI50: > 100 µM (inactive)
[46]
  GI50: > 100 µM
[47]
  GI50: > 100 µM (inactive)
[48]
  GI50: > 100 µM (inactive)
[49]
  GI50: > 100 µM (inactive)
[52]
  GI50: > 100 µM (inactive)
[53]
  GI50: > 100 µM (inactive)
[54]
  GI50: > 100 µM (inactive)
[55]
  GI50: > 100 µM (inactive)
[56]
  GI50: > 100 µM (inactive)
[57]
  GI50: > 100 µM (inactive)
